# Data: ChEMBL document CHEMBL5038569, “Targeting RECQL5 Functions, by a Small Molecule, Selectively Kills Breast Cancer in Vitro and in Vivo” (J Med Chem, 2021)
# The source made the active and inactive calls. The calls are words filed in the database; no cut-off is given here.
# What was measured:
# [1] = Chronic toxicity in […] mouse assessed as change in behavior at 100 mg/kg, po administered as single dose via gavage measured for 30 days; type: organism-based; details: in vivo, 720 h, time 30 day
# MCF7 [2] = assay: Induction of DNA damage in human MCF7 cells expressing wild type RECQL5 assessed as double strand breaks by measuring increase in phosphorylation of ATM at S1981 residue at 20 uM measured up to 24 hrs by Western blot analysis; type: functional, cell-based; details: time hrs <=24
# MCF7 [3] = assay: Inhibition of homologous recombinant repair in RECQL5 knock out human MCF7 cells expressing SceGFP/iGFP mutants assessed as I-SceI induced generation of resected double stand breaks by measuring GFP-expressing cells at 10 uM measured after 48 hrs by flow cytometry analysis; type: functional, cell-based
# MCF7 [4] = assay: Cytotoxicity against RECQL5 knock out human MCF7 cells expressing wild type RECQL5-FLAG assessed as reduction in colony formation at 10 uM measured after 8 to 10 days by clonogenic survival assay; type: functional, cell-based; details: time 8-10 day
# MCF7 [5] = assay: Cytotoxicity against human MCF7 cells expressing RECQL5 assessed as cell growth inhibition measured after 72 hrs by MTT assay; type: functional
# MCF7 [6] = assay: Inhibition of homologous recombinant repair in human MCF7 cells expressing RECQL5 wildtype assessed as stabilization of RAD51-RECQL5 interaction by measuring increase in RAD51 foci formation at 20 uM measured after 4 to 24 hrs by immunofluorescence microscopic analysis; type: functional, cell-based; details: time 4-24 hrs
# [7] = target: T1, DNA repair protein RAD51 homolog 1 (Homo sapiens) (UniProt Q06609); assay: Stabilization of RAD51 foci in human MCF7 cells assessed as increase in RAD51 positive cells at 20 uM pretreated with cisplatin for 8 hrs followed by compound addition and measured after 24 hrs by immunofluorescence microscopic analysis; type: cell-based
# T1 sequence (whole entry): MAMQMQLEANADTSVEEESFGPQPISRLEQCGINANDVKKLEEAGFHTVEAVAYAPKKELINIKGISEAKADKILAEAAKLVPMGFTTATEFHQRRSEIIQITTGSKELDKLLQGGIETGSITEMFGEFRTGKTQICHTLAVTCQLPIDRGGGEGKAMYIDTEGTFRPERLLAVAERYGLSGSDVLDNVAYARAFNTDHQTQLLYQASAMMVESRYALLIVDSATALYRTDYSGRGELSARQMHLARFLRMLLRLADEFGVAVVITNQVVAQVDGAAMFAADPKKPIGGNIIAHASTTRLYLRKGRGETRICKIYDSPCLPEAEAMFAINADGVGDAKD
# [8] = Toxicity in nude mouse xenografted with human MCF7 cells assessed as morphological changes in liver at 50 mg/kg, po administered via oral gavage and measured after 30 days; type: organism-based; details: in vivo, 720 h, time 30 day
# MCF7 [9] = assay: Induction of DNA damage in RECQL5 knock out human MCF7 cells assessed as double strand breaks by measuring increase in phosphorylation of ATM at S1981 residue at 20 uM measured up to 24 hrs by Western blot analysis; type: functional, cell-based; details: time hrs <=24
# MCF7 [10] = assay: Effect on homologous recombinant repair in human MCF7 cells expressing wild type RECQL5 assessed as accumulation of RAD50 protein on chromatin at 20 uM incubated for 4 to 24 hrs by Western blot analysis; type: functional, cell-based; details: time 4-24 hrs, TDE = time-dependent effect
# [11] = Toxicity in […] mouse assessed as fold change in SGPT level at 100 mg/kg, po administered as single dose via gavage measured after 30 days relative to control; type: organism-based; details: in vivo, 720 h, time 30 day
# MDA-MB-231 = assay: Induction of apoptosis in RECQL5 depleted human MDA-MB-231 cells assessed as cell death measured after 72 hrs by propidium iodide/RNase A staining based flow cytometric analysis; type: functional
# MCF7 [12] = assay: Cytotoxicity against human MCF7 cells expressing RECQL5-RFP wild type helicase assessed as sensitizing activity by measuring colony survival at 5 to 20 uM measured after 8 to 10 days by clonogenic survival assay; type: functional, cell-based; details: dose 5-20 µM, time 8-10 day
# [13] = Toxicity in […] mouse assessed as fold change in creatinine level at 100 mg/kg, po administered as single dose via gavage measured after 30 days relative to control; type: organism-based; details: in vivo, 720 h, time 30 day
# MCF7 [14] = assay: Cytotoxicity against RECQL5 knock out human MCF7 cells expressing […] assessed as reduction in colony formation at 10 uM measured after 8 to 10 days by clonogenic survival assay; type: functional, cell-based; details: time 8-10 day
# [15] = Toxicity in […] mouse assessed as fold change in spleen cell count at 100 mg/kg, po administered as single dose via gavage measured after 30 days relative to control; type: organism-based; details: in vivo, 720 h, time 30 day
# [16] = Selectivity ratio of IC20 for cytotoxicity against human MCF-10A cells expressing RECQL5 to IC20 for cytotoxicity against human MCF7 cells expressing RECQL5; type: toxicity, cell-based
# MCF7 [17] = assay: Cytotoxicity against RECQL5 knock out human MCF7 cells assessed as cell growth inhibition measured after 72 hrs by MTT assay; type: functional; details: dose 6-50 µM
# MCF7 [18] = assay: Effect on homologous recombinant repair in RECQL5 knock out human MCF7 cells assessed as accumulation of NBS1 protein on chromatin at 20 uM incubated for 4 to 24 hrs by Western blot analysis; type: functional, cell-based; details: time 4-24 hrs
# MCF7 [19] = assay: Induction of DNA damage in RECQL5 knock out human MCF7 cells assessed as double strand breaks by measuring increase in phosphorylation of CHK2 at T68 residue at 20 uM measured up to 24 hrs by Western blot analysis; type: functional, cell-based; details: time hrs <=24
# MCF7 [20] = assay: Stabilization of RECQL5-RAD51 complex in human MCF7 cells expressing wild type RECQL5 assessed as increase in accumulation of chromatin-bound RECQL5 and RAD51 at 20 uM measured after 4 to 24 hrs by Western blot analysis; type: cell-based; details: time 4-24 hrs, TDE = time-dependent effect
# MCF7 [21] = assay: Cytotoxicity against human MCF7 cells expressing wild type RECQL5 assessed as inhibition of colony formation measured after 8 to 10 days by clonogenic survival assay; type: functional, cell-based
# MCF7 [22] = assay: Induction of DNA damage in human MCF7 cells expressing wild type RECQL5 assessed as double strand breaks by measuring increase in gamma-H2AX foci formation incubated for 24 hrs by immunofluorescence microscopic analysis; type: functional, cell-based; details: dose 0-20 µM
# MCF7 [23] = assay: Cytotoxicity against RECQL5 knock out human MCF7 cells assessed as inhibition of colony formation measured after 8 to 10 days by clonogenic survival assay; type: functional, cell-based
# MCF7 [24] = assay: Cytotoxicity against human MCF7 cells with shRNA-mediated RECQL1 depletion assessed as reduction in cell viability at 6 to 25 uM measured after 8 to 10 days by clonogenic survival assay; type: functional, cell-based; details: dose 6-25 µM, time 8-10 day
# [25] = Toxicity in nude mouse xenografted with human MCF7 cells assessed as morphological changes in heart at 50 mg/kg, po administered via oral gavage and measured after 30 days; type: organism-based; details: in vivo, 720 h, time 30 day
# T47D = assay: Inhibition of homologous recombinant repair in human T47D cells expressing wild type RECQL5 assessed as stabilization of RAD51-RECQL5 interaction by measuring increase in RAD51 foci formation at 20 uM measured after 4 to 24 hrs by immunofluorescence microscopic analysis; type: functional, cell-based; details: time 4-24 hrs
# MCF7 [26] = assay: Cytotoxicity against human MCF7 cells with shRNA-mediated WRN depletion assessed as reduction in cell viability at 6 to 25 uM measured after 8 to 10 days by clonogenic survival assay; type: functional, cell-based; details: dose 6-25 µM, time 8-10 day
structure (smiles),measurement,setting,value
O=C(Nc1cc(C(F)(F)F)cc(C(F)(F)F)c1)N[C@@H](c1ccccc1)c1nnc(SCc2ccccc2)o1,Activity,[1],Non-Toxic
same,Activity,MCF7 [2],Active
same,inhibition,MCF7 [3],inactive
same,Activity,MCF7 [4],Active
same,IC20,MCF7 [5],8.4 µM
same,inhibition,MCF7 [6],Active
same,Activity,[7],Active
same,Activity,[8],Non-Toxic
same,Activity,MCF7 [9],inactive
same,Activity,MCF7 [10],Tde
same,fold change (FC),[11],0.92
same,Activity,MDA-MB-231,inactive
same,Activity,MCF7 [12],Active
same,fold change (FC),[13],1.05
same,Activity,MCF7 [14],inactive
same,fold change (FC),[15],1.03
same,selectivity ratio,[16],4
same,IC20,MCF7 [17],22.3 µM
same,Activity,MCF7 [18],inactive
same,Activity,MCF7 [19],inactive
same,Activity,MCF7 [20],Tde
same,IC50,MCF7 [21],4.8 µM
same,Activity,MCF7 [22],Dose-Dependent Effect
same,IC50,MCF7 [23],19.6 µM
same,Activity,MCF7 [24],Active
same,Activity,[25],Non-Toxic
same,inhibition,T47D,Active
same,Activity,MCF7 [26],Active
